The values below come from patent US20100278789A1, “METHODS OF GENERATING EXPANDED AND RE-DIFFERENTIATED ADULT ISLET BETA CELLS CAPABLE OF PRODUCING INSULIN” (priority 2007, published 2010).

The test system of one data set is eGFP+ human islet cells. Description: Insulin immunostaining of eGFP+ islet cells incubated with diazoxide after viral infection. Format: cell-based. Also noted: dose or concentration left out as unconfirmed. The note with it: diazoxide following viral infection, days 5-6 of culture.
In data set [1] the test system is Beta cell derived labeled cells at P5. The data set can be described thus: Insulin expression (RT-PCR) in beta cell derived labeled cells treated with gamma-secretase inhibitor. The data set is classed as cell-based, human. As to conditions: 300 nM, 4 days, vs untreated or DMSO. As for the experimental part: Beta cell derived labeled cells at P5 treated for 4 days with 300 nM gamma-secretase inhibitor (S,S)-2-[2-(3,5-difluorophenyl)acetylamino]-N-(5-methyl-6-oxo-6,7-dihydro-5H-dibenzo [b,d]azepin-7-yl)propionamide (DBZ). Control cells were either untreated, or treated with DMSO (solvent). Medium with compound was changed every 48 hours.
RT-PCR analyses: As described for Example 1.

Data set [2] relates to cultured human islet cells. Description: Immunoblotting for cleaved PARP (apoptosis) in islet cells. Format: cell-based. As for the experimental part: (§1) HES1 inhibition and lineage tracing: HES1 shRNA ([…])—SEQ ID NO: 7 and a non-target shRNA, cloned in pLKO.1 lentiviral vector, were obtained from the RNAi Consortium (Sigma-Aldrich). Virus was produced in 293T cells following cotransfection with the pCMVdR8.91 and pMD2.G packaging plasmids. The culture medium was harvested 48 hours later. Islet cells cultured for 1-2 days were washed with PBS and infected at MOI 2.5:1 in CMRL 1066 medium containing 8 μg/ml polybrene overnight. The medium was then replaced with regular culture medium. Four days after infection, the cells were selected for puromycin resistance (1 μg/ml) for 3 days. Two weeks after infection the cells were harvested for further analysis. Lineage tracing was performed using the RIP-Cre and a pTrip CMV-loxP-DsRed2-loxP-eGFP viruses as described herein below. Briefly, islet cells cultured for 1-2 days were infected with a 1:1:1 mixture of the 3 viruses (shRNA+RIP-Cre+pTrip CMV-loxP-DsRed2-loxP-eGFP) at a total MOI 4:1. Selection and further analysis were carried out as above.
(§2) Immunoblotting: Total cellular protein was extracted in 0.5% NP40 containing a protease inhibitor cocktail (Roche). Protein concentration was determined by the BCA method (Pierce, Rockford, Ill.). […] Loading was monitored using goat-anti-beta-actin (Santa Cruz, 1:1000). […]

In data set [3] the test system is HES1. Description: Screening of 4 HES1 shRNA sequences in 293T cells, HES1 immunoblotting. Format: cell-based. Here is the method:
Immunoblotting: Total cellular protein was extracted in 0.5% NP40 containing a protease inhibitor cocktail (Roche). Protein concentration was determined by the BCA method (Pierce, Rockford, Ill.). 70 μg protein were separated on 12% sodium dodecyl sulphate-polyacrylamide gels and electroblotted onto PDF membranes. The membranes were incubated with rabbit-anti-HES1 (1:1000) or rabbit-anti-PARP (Cell Signaling, 1:1000). Loading was monitored using goat-anti-beta-actin (Santa Cruz, 1:1000). The bound antibody was visualized with the appropriate horseradish peroxidase-conjugated anti-IgG (Jackson) and SuperSignal West Pico Chemiluminescent Substrate (Pierce). Cells treated with 1 μm staurosporine for 6 hours were used as positive control for the PARP blot.
Inhibition of HES1 expression prevents induction of beta-cell replication: To further correlate the induction of beta-cell replication with HES1 upregulation, HES1 induction during the initial weeks of culture was inhibited using shRNA. […] Isolated human islets were dissociated, and the cells were infected with a lentivirus encoding HES1 shRNA before culture under standard conditions. Selection for drug resistance allowed elimination of uninfected cells. Cells infected with a non-target shRNA lentivirus and selected under similar conditions served as control. […]

The test system of data set [4] is HES1. The data set can be described thus: Immunoblotting for HES1 in islet cells infected at culture initiation with HES1 shRNA virus. As to conditions: islet cells infected after 1-2 days of culture, analysed 14 days after infection. The data set is classed as cell-based, human. Here is the method: as §1, §2
Data set [5] has as its system cultured human islet cells. The data set can be described thus: Replication of cultured islet cells (BrdU incorporation, Ki67 staining) after HES1 shRNA infection. The data set is classed as cell-based. The note with it: 14 days after infection. Here is the method: as §1
(§3) Immunofluorescence: Cells were plated in 24-well plates on sterilized coverslips and fixed in 4% paraformaldehyde. Cells were permeabilized with 0.25% NP40 for 10 minutes and blocked for 10 minutes at room temperature in 1% bovine serum albumin, 10% FBS, and 0.2% saponin. […]

Data set [6] deals with cultured human islet cells. The data set can be described thus: qPCR analysis of RNA from islet cells 14 days after HES1 shRNA infection. The data set is classed as cell-based. The note with it: 14 days after infection. As for the experimental part: as §1
RNA analyses: Total RNA was extracted using High Pure RNA isolation kit (Roche). cDNA was synthesized using SuperScript III (Invitrogen). qPCR was performed using a Prism 7300 ABI Real Time PCR System (Applied Biosystems). Relative quantitative analysis was performed according to the comparative CT method by using the arithmetic formula 2̂^−(ΔΔct). The cDNA levels were normalized to human ribosomal protein P0 (RPLP0) cDNA.

Data set [7] concerns cultured human islet cells. The data set can be described thus: Insulin immunostaining of islet cells and eGFP+ cells after HES1 shRNA infection. Format: cell-based. Here is the method:
as §1, §3

For data set [8], the system named is dedifferentiated human islet cells expanded in culture. The data set can be described thus: Redifferentiation of dedifferentiated expanded human islet cells by HES1 shRNA (immunoblotting, RT-PCR, insulin ELISA, morphology). The data set is classed as cell-based. As for the experimental part:
Human islet cells were cultured for 4-5 weeks as described for Example 1. They were then infected with lentiviruses expressing HES1 (SEQ ID NO: 7) or nontarget shRNAs. Nine days following infection the cells were analyzed as described for Example 1. Primers used for RT-PCR analysis are described in Table 1, herein above, […]

Data set [9] has as its system sorted eGFP+ cells derived from beta cells. Description: HES1 shRNA in sorted eGFP+ cells expanded 7 population doublings, qRT-PCR and morphology. Format: cell-based, human. As for the experimental part:
Virus was produced in 293T cells following cotransfection with the pCMVdR8.91 and pMD2.G packaging plasmids. The culture medium was harvested 48 hours later. […] They were then infected with HES1 or nontarget shRNA viruses, and 4 days later trypsinized and shifted to serum free medium (SFM). RNA was extracted following 4 more days and analyzed by qRT-PCR.
RNA analyses: As described for Example 1.

The mark [10] stands for this setting: cells cultured 4-5 weeks, 9 days after infection, immunoblotting.

As to `CC1=NS(=O)(=O)c2cc(Cl)ccc2N1` [diazoxide], the “fraction of eGFP+ cells that were insulin-positive” value in the data set on eGFP+ human islet cells came to 84.8±5.8%.

Turning to `C[C@H](NC(=O)Cc1cc(F)cc(F)c1)C(=O)N[C@@H]1C(=O)N(C)c2ccccc2-c2ccccc21` [gamma secretase inhibitor, (S,S)-2-[2-(3,5-difluorophenyl)acetylamino]-N-(5-methyl-6-oxo-6,7-dihydro-5H-dibenzo [b,d]azepin-7-yl)propionamide], in data set [1], the insulin expression entry was “increase”.

As to `CN[C@@H]1C[C@H]2O[C@@](C)([C@@H]1OC)n1c3ccccc3c3c4c(c5c6ccccc6n2c5c31)C(=O)NC4` [staurosporin, staurosporine, reference compound], in data set [2] (uninfected cells, 1 μm staurosporine for 6 hours), the “PARP cleavage, immunoblotting (positive control)” value was “cleaved PARP”.

For “TGGCCAGTTTGCTTTCCTCAT (chemistry not given here) [HES1 shRNA, HES1 shRNA cloned in pLKO.1 lentiviral vector, obtained from the RNAi Consortium (Sigma-Aldrich)]”, the “efficiency among 4 HES1 shRNA sequences, based on reduction in HES1 protein levels” value with HES1 [3] was “most efficient”. Moreover, the “HES1 protein levels, lower compared with cells infected with the control virus” value with HES1 [4] was “up to 6 ×”. The “replication rate, Ki67 staining in eGFP+ cells derived from beta cells” value in data set [5] was “lower replication rate”. In addition, in data set [5] (compared with control vector), the “cell proliferation, staining for BrdU incorporation” value is listed as “diminished cell proliferation”. In addition, the “cell apoptosis, immunoblotting for cleaved PARP” value in data set [2] (HES1 shRNA virus vs non-target virus, 14 days after infection) was “did not correlate with an increase in cell apoptosis”. In data set [6], the “insulin transcripts, lower compared with primary islets” value came out at 20 fold; the “levels of NOTCH transcripts” value was “did not affect”; the “levels of PDX1 and NEUROD1 transcripts relative to primary islets” value is recorded as “comparable to those in primary islets”. Besides, in [6] (p<0.01), the “insulin transcripts, higher compared with cells infected with control virus” value is on record as 5.7 fold. Also, the “p57 transcripts, higher than in cells infected with control virus” value in [6] (p<0.04) turned out to be 5.7 fold. The “PDX1 transcript levels, higher than control virus” value in [6] (p<0.05) came out at 5.6 fold. For the same molecule, in data set [6] (p<5.45×10^−5), the “NEUROD1 transcript levels, higher than control virus” value is recorded as 3.7 fold. In addition, in data set [7], the “fraction of insulin-positive cells among eGFP+ cells, higher” value is on record as 3 fold. Further, the “number of insulin-positive cells, higher than control virus” value in [7] (p<0.016) is given as 4 fold. The “insulin expression by insulin ELISA and immunostaining” value in data set [8] (9 days after infection) is “increase”. Besides, in [8] (9 days after infection, RT-PCR), the NEUROD1 transcripts entry is on record as “significant increase”; the PDX1 transcripts result is “significant increase”; the insulin transcripts entry is listed as “significant increase”; the “p57, RNA analysis” value is “increase”. In [8] (setting [10]), the “cellular HES1 protein levels” value was “decrease” and the “p57 levels (protein)” value is “increase”. Also, the morphological change entry in [8] (cells expressing HES1 shRNA) was “tended to form clusters”. Also, the “upregulation of transcripts encoding insulin, PDX1, NEUROD1, IAPP, and PC1” value in data set [9] (eGFP+ vs eGFP− cells, qRT-PCR) is “occurred preferentially in eGFP^+ cells”. Also, the “induction of beta-cell transcripts, combination of SFM with HES1 shRNA” value in data set [9] (shRNA infection, 4 days later shifted to SFM, RNA after 4 more days) was “pronounced additive effect”. Further, the “morphological changes in response to HES1 shRNA, eGFP+ compared with eGFP− cells” value in data set [9] (sorted cells) was “much more pronounced in eGFP^+ cells”.
